According to ChEMBL document CHEMBL1140229, “Flavanones from the stem bark of Erythrina abyssinica” (Bioorg Med Chem, 2008):
The source made the active and inactive calls. The rule behind the calls is not given here.

Assays:
[1] = biological target: T1, Tyrosine-protein phosphatase non-receptor type 1 (Homo sapiens, UniProt P18031); experiment: (§1) Inhibition of human recombinant PTP1B
T1 sequence (P18031 whole entry): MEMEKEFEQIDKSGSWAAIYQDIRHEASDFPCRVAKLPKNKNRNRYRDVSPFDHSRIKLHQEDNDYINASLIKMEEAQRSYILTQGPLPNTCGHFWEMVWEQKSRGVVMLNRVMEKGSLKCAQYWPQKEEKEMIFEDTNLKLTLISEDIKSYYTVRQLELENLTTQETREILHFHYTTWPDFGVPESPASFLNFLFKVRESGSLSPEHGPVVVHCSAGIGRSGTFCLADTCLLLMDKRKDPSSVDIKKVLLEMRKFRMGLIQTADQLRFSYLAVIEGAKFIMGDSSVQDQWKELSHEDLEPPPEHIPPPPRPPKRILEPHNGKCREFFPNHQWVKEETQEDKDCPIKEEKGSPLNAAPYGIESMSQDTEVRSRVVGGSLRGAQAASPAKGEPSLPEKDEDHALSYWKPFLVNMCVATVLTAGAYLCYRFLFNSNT

[2] = biological target: T2, Tyrosine-protein phosphatase non-receptor type 1 (Homo sapiens) (UniProt P18031); experiment: as §1
T2 sequence (whole entry): T1 sequence (P18031 whole entry)

Compound: COc1c(/C=C/C(C)(C)O)cc([C@@H]2CC(=O)c3c(O)cc(O)cc3O2)cc1CC=C(C)C [BURTTINONE]
- IC50 [1]: 18.9 µM

Compound: COc1cc([C@@H]2CC(=O)c3c(O)cc(O)cc3O2)cc2c1OC(C)(C)C(O)C2 (some centres undefined)
- IC50 [1]: 18.2 µM

Compound: CC(C)=CCc1cc([C@@H]2CC(=O)c3c(O)cc(O)cc3O2)cc2c1OC(C)(C)C(O)C2 (some centres undefined)
- IC50 [1]: 14.9 µM

Compound: CC1(C)CC(=O)c2cc([C@@H]3CC(=O)c4c(O)cc(O)cc4O3)cc(O)c2O1
- IC50 [1]: > 60 µM

Compound: COc1cc([C@@H]2CC(=O)c3c(O)cc(O)cc3O2)cc2c1OC(C)(CO)C=C2 (some centres undefined)
- IC50 [1]: 17.9 µM

Compound: CC1(C)Oc2ccc([C@@H]3CC(=O)c4c(O)cc(O)cc4O3)cc2C(O)C1O (some centres undefined)
- IC50 [1]: > 60 µM

Compound: CC1(C)Oc2c(O)cc([C@@H]3CC(=O)c4ccc(O)cc4O3)cc2C(O)C1O (some centres undefined)
- IC50 [1]: > 60 µM

Compound: CCCCCCCCCCCCCCCC(=O)C1=C(O)[C@@H](CO)OC1=O
- IC50 [1]: 4.7 µM

Compound: CC(C)=CCc1cc([C@@H]2CC(=O)c3c(O)cc(O)cc3O2)cc2c1OC(C)(C)C(O)C2O (some centres undefined)
- IC50 [1]: 19 µM

Compound: O=C1C[C@@H](c2ccc(O)cc2)Oc2cc(O)cc(O)c21
- Activity [2]: inactive

Compound: CC1(CO)C=Cc2cc([C@@H]3CC(=O)c4c(O)cc(O)cc4O3)cc(O)c2O1 (some centres undefined)
- IC50 [1]: > 60 µM

Compound: CC1(C)C=Cc2cc([C@@H]3CC(=O)c4c(O)cc(O)cc4O3)c3c(c2O1)OC(C)(C)C=C3
- IC50 [1]: > 60 µM

Compound: CC(C)=CCc1c([C@@H]2CC(=O)c3c(O)cc(O)cc3O2)cc(O)c2c1C=CC(C)(C)O2
- IC50 [1]: 13.9 µM

Compound: C=C(C)/C=C/c1cc([C@@H]2CC(=O)c3c(O)cc(O)cc3O2)cc(CC=C(C)C)c1OC [BURTTINONEDEHYDRATE]
- IC50 [1]: 21.6 µM

Compound: CC1(C)C(C2CC(=O)c3ccccc3O2)=C(O)C(O)=C2OC(O)C(O)C(O)C21 (centres undefined) [SIGMOIDIN G]
- IC50 [1]: > 60 µM

Compound: CC(C)=CCc1c([C@@H]2CC(=O)c3c(O)cc(O)cc3O2)cc2c(c1O)OC(C)(C)C(O)C2O (some centres undefined)
- IC50 [1]: 18.2 µM

Compound: CC1(C)Oc2c(O)cc([C@@H]3CC(=O)c4c(O)cc(O)cc4O3)cc2C[C@@H]1O [SIGMOIDIN D]
- IC50 [1]: > 60 µM

Compound: O=C1C[C@@H](c2ccc(O)cc2)Oc2cc(O)ccc21
- Activity [2]: inactive

Compound: CC1(C)Oc2c(O)cc([C@@H]3CC(=O)c4ccc(O)cc4O3)cc2CC1O (some centres undefined)
- IC50 [1]: > 60 µM
